Data set [1] can be described thus: Metabolic stability in rat microsomes. Type of data set: ADME, Microsome.
Data set [2] can be described thus: Antiplatelet activity in human platelet rich plasma assessed as inhibition of ADP-induced platelet aggregation. Type of data set: functional.
Another data set concerns the target P2Y purinoceptor 12 (Homo sapiens, UniProt Q9H244). The experiment in a line: Inhibition of human P2Y12 receptor expressed in CHO cells.
Data set [3] is described as follows: Antiplatelet activity in human platelet rich plasma assessed as inhibition of ADP-induced platelet aggregation relative to AZD-6140. The data set is classed as functional.
Data set [4] can be described thus: Metabolic stability in human microsomes. The data set is classed as ADME, Microsome.

pIC50, pKi: −log10 of the molar value.

Chain of P2Y purinoceptor 12 (Q9H244 whole entry): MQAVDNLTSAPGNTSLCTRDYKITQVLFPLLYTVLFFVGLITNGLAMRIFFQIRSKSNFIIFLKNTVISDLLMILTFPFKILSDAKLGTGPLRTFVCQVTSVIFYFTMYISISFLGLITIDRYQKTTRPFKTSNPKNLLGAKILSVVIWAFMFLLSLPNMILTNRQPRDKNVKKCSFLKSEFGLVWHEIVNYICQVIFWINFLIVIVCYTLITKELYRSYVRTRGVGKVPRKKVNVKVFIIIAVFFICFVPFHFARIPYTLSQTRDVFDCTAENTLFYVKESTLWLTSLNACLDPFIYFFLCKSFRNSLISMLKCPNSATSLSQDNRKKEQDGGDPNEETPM

Turning to `CCCCCOC(=O)N1CCN(C(=O)[C@H](CCC(=O)O)NC(=O)c2cc(N3CCC(CN4CCCC4)CC3)cc(-c3ccccc3)n2)CC1`, the Stability result in data set [1] and in data set [4] was “Stable” throughout. Besides, the pIC50 – broadly, −log10 of the IC50, conventionally taken in molar units – in data set [2] was 6.13. Moreover, the pKi – broadly, −log10 of the Ki, conventionally taken in molar units – at P2Y purinoceptor 12 was 8.96. The “fold change (FC)” value in data set [3] is recorded as 0.93.
For the molecule `CCCCCOC(=O)N1CCN(C(=O)[C@H](CCC(=O)O)NC(=O)c2cc(N3CCCC(N4CCCC4)C3)cc(-c3ccccc3)n2)CC1` (stereo not given in full), the Stability entry in data set [1] and in data set [4] was “Stable” throughout. Further, in data set [2], the pIC50 was 5.48. The molecule also had a pKi on P2Y purinoceptor 12 of 7.96. Moreover, in data set [3], the “fold change (FC)” value was determined as 3.3.
In the case of `CCCCCOC(=O)N1CCN(C(=O)[C@H](CCC(=O)O)NC(=O)c2cc(N3CC[C@@H](C(=O)N4CCCC4)C3)cc(-c3ccccc3)n2)CC1`, the Stability entry in data set [1] and in data set [4] was “Stable” each time. Further, the pIC50 in data set [2] is 5.66. This molecule also gave a pKi on P2Y purinoceptor 12 of 8.85. Also, the “fold change (FC)” value in data set [3] worked out at 1.7.
Take `CCCCCOC(=O)N1CCN(C(=O)C(CCC(=O)O)NC(=O)c2cc(N3CCC(COC)C3)cc(-c3ccccc3)n2)CC1` (mixture of isomers): the Stability result in data set [1] and in data set [4] was “Stable” each time. Also, the pIC50 in data set [2] was 5.14. At P2Y purinoceptor 12, this molecule had a pKi of 7.51. In addition, in data set [3], the “fold change (FC)” value was found to be 10.
As for `CCCCCOC(=O)N1CCN(C(=O)[C@H](CCC(=O)O)NC(=O)c2cc(N3CCCC(CNC(C)=O)C3)cc(-c3ccccc3)n2)CC1` (stereo not given in full), the Stability result in data set [1] and in data set [4] was “Stable” in each case. For the same molecule, the pIC50 in data set [2] was 5.54. Moreover, the pKi at P2Y purinoceptor 12 was 8.00. Moreover, the “fold change (FC)” value in data set [3] worked out at 3.4.
With `CCCCCOC(=O)N1CCN(C(=O)[C@H](CCC(=O)O)NC(=O)c2cc(N3CCC[C@H](O)C3)cc(-c3ccccc3)n2)CC1`, the Stability result in data set [1] and in data set [4] was “Stable” in each case. For the same molecule, the pIC50 in data set [2] is 5.62. Further, on P2Y purinoceptor 12, the pKi was 7.74. Also, the “fold change (FC)” value in data set [3] stood at 3.7.
With `CCCCCOC(=O)N1CCN(C(=O)[C@H](CCC(=O)O)NC(=O)c2cc(N3CCN(C(N)=O)CC3)cc(-c3ccccc3)n2)CC1`, the Stability result in data set [1] and in data set [4] was “Stable” each time. In data set [2], the pIC50 is 5.72. Further, the pKi on P2Y purinoceptor 12 is 8.20. Besides, in data set [3], the “fold change (FC)” value was found to be 1.8.
As to `CCCCCOC(=O)N1CCN(C(=O)[C@H](CCC(=O)O)NC(=O)c2cc(N3CCC(CN(CC)CC)CC3)cc(-c3ccccc3)n2)CC1`, the Stability result in data set [1] and in data set [4] was “Stable” throughout. Also, the pIC50 in data set [2] is 5.66. This molecule gave a pKi on P2Y purinoceptor 12 of 8.40. In data set [3], the “fold change (FC)” value is 2.7.
Consider `CCCCCOC(=O)N1CCN(C(=O)[C@H](CCC(=O)O)NC(=O)c2cc(N3CCC[C@@H](O)C3)cc(-c3ccccc3)n2)CC1`, for which the Stability entry in data set [1] and in data set [4] was “Stable” in each case. Besides, in data set [2], the pIC50 was 5.36. The pKi at P2Y purinoceptor 12 is 7.80. Further, in data set [3], the “fold change (FC)” value was 4.9.
For `CCCCCOC(=O)N1CCN(C(=O)[C@H](CCC(=O)O)NC(=O)c2cc(N3CCCC(N)C3)cc(-c3ccccc3)n2)CC1` (stereo not given in full), the Stability entry in data set [1] and in data set [4] was “Stable” throughout. For the same molecule, in data set [2], the negative-log IC50 (pIC50) is 5.74. In addition, the pKi at P2Y purinoceptor 12 is 8.26. In addition, the “fold change (FC)” value in data set [3] was determined as 2.2.
For `CCCCOC(=O)N1CCN(C(=O)[C@H](CCC(=O)O)NC(=O)c2cc(N3CCC(C(=O)NCC)CC3)cc(-c3ccccc3)n2)CC1`, the Stability result in data set [1] and in data set [4] was “Stable” each time. Further, in data set [2], the pIC50 was 5.92. Besides, at P2Y purinoceptor 12, the pKi is 9.17. The “fold change (FC)” value in data set [3] was 0.9.
For `CCCCCOC(=O)N1CCN(C(=O)[C@H](CCC(=O)O)NC(=O)c2cc(N3CCC(C(=O)N(C)C)CC3)cc(-c3ccccc3)n2)CC1`, the Stability result in data set [1] and in data set [4] was “Stable” each time. Besides, the pIC50 in data set [2] is 6.22. For the same molecule, the pKi on P2Y purinoceptor 12 was 9.01. Moreover, in data set [3], the “fold change (FC)” value was 0.72.
As to `CCCCOC(=O)N1CCN(C(=O)[C@H](CCC(=O)O)NC(=O)c2cc(N3CCC(CNC)CC3)cc(-c3ccccc3)n2)CC1`, the Stability result in data set [1] and in data set [4] was “Stable” in each case. Further, the pIC50 in data set [2] is 6.04. This molecule had a pKi on P2Y purinoceptor 12 of 8.40. Besides, the “fold change (FC)” value in data set [3] stood at 1.
In the case of `CCCCCOC(=O)N1CCN(C(=O)[C@H](CCC(=O)O)NC(=O)c2cc(N3CCC(CCN4CCCC4)CC3)cc(-c3ccccc3)n2)CC1`, the Stability result in data set [1] and in data set [4] was “Stable” each time. Besides, in data set [2], the pIC50 was 6.12. Besides, the pKi at P2Y purinoceptor 12 is 8.10. In addition, the “fold change (FC)” value in data set [3] amounted to 0.59.
On to `CCCCCOC(=O)N1CCN(C(=O)[C@H](CCC(=O)O)NC(=O)c2cc(N3CCN(C(=O)CN(C)C)CC3)cc(-c3ccccc3)n2)CC1`, for which the Stability result in data set [1] and in data set [4] was “Stable” throughout. The pIC50 in data set [2] is 6.15. This molecule also had a pKi on P2Y purinoceptor 12 of 8.55. The “fold change (FC)” value in data set [3] was 2.5.
As for `CCCCOC(=O)N1CCN(C(=O)[C@H](CCC(=O)O)NC(=O)c2cc(N3CCC(C(=O)NC(C)C)CC3)cc(-c3ccccc3)n2)CC1`, the Stability entry in data set [1] and in data set [4] was “Stable” throughout. Moreover, in data set [2], the pIC50 was 6.21. Also, the pKi on P2Y purinoceptor 12 is 8.37. In data set [3], the “fold change (FC)” value was found to be 0.82.
As to `CCCCCOC(=O)N1CCN(C(=O)[C@H](CCC(=O)O)NC(=O)c2cc(N3CCC(C(=O)NC)CC3)cc(-c3ccccc3)n2)CC1`, the Stability result in data set [1] and in data set [4] was “Stable” throughout. The pIC50 in data set [2] is 5.80. This molecule also had a pKi at P2Y purinoceptor 12 of 8.10. In addition, the “fold change (FC)” value in data set [3] was 0.86.
`CCCCOC(=O)N1CCN(C(=O)[C@H](CCC(=O)O)NC(=O)c2cc(N3CCC(CN(C)C)CC3)cc(-c3ccccc3)n2)CC1`: the Stability result in data set [1] and in data set [4] was “Stable” each time. Moreover, in data set [2], the pIC50 is 6.05. For the same molecule, the pKi at P2Y purinoceptor 12 was 8.49. For the same molecule, the “fold change (FC)” value in data set [3] is given as 1.3.
`CCCCCOC(=O)N1CCN(C(=O)[C@H](CCC(=O)O)NC(=O)c2cc(N3CCN(CC(=O)N(CC)CC)CC3)cc(-c3ccccc3)n2)CC1`: the Stability result in data set [1] and in data set [4] was “Stable” throughout. For the same molecule, in data set [2], the pIC50 is 5.54. At P2Y purinoceptor 12, this molecule gave a pKi of 8.23. In addition, the “fold change (FC)” value in data set [3] turned out to be 3.2.
For `CCCCCOC(=O)N1CCN(C(=O)[C@H](CCC(=O)O)NC(=O)c2cc(N3CCC(CN)CC3)cc(-c3ccccc3)n2)CC1`, the Stability result in data set [1] and in data set [4] was “Stable” in each case. In data set [2], the pIC50 was 6.11. Further, the pKi at P2Y purinoceptor 12 is 7.82. In addition, the “fold change (FC)” value in data set [3] is given as 0.62.
Consider `CCCCCOC(=O)N1CCN(C(=O)[C@H](CCC(=O)O)NC(=O)c2cc(N3CC[C@H](C(=O)N(CC)CC)C3)cc(-c3ccccc3)n2)CC1`, for which the Stability entry in data set [1] and in data set [4] was “Stable” throughout. Also, the negative-log IC50 (pIC50) in data set [2] is 5.32. Also, on P2Y purinoceptor 12, the pKi was 8.77. Besides, in data set [3], the “fold change (FC)” value worked out at 4.6.
